Data reported in ChEMBL document CHEMBL4339239, “A Cytotoxic Indole Characterized by Incorporation of a Unique Carbon-Nitrogen Skeleton and Two Pentacyclic Corynanthean Alkaloids Incorporating a Substituted Tetrahydrofuranone Ring from Kopsia arborea” (J Nat Prod, 2019).

Tested on: HT-29
Assay: Cytotoxicity in human HT-29 cells assessed as inhibition of cell growth incubated for 72 hrs by MTT assay
Assay type: functional, cell-based
Settings: HT-29, 72 h

Structure (SMILES) | IC50
C[C@H](O)[C@@]12CN3CCc4c([nH]c5ccccc45)[C@@H]3C[C@@H]1C(=O)CO2 | > 30 µM
C=C1c2[nH]c3ccccc3c2C[C@H]2[N@]3CC[C@]12/C(=C\C)C3 | 6.2 µM
